One series deals with Thymidylate synthase (Homo sapiens, UniProt P04818). The experiment in a line: Inhibition of human thymidylate synthase.
The next series concerns the target T1, Dihydrofolate reductase (Homo sapiens, UniProt P00374).
T1 sequence (P00374 whole entry): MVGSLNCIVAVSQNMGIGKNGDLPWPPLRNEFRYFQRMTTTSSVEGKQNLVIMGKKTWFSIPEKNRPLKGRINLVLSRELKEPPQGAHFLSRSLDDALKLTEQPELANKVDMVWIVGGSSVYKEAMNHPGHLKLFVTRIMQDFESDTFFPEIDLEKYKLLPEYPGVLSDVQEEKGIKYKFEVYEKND
Briefly: Inhibition of human DHFR.

Series [1] relates to Cryptosporidium hominis. Briefly: Antiparasitic activity against compound pre-treated Cryptosporidium hominis Iowa sporozoites infected in human HCT8 cells assessed as reduction in parasite infection. It counts as functional, organism-based. Conditions: HCT-8.
The nature of series [2]: Toxicity in Cryptosporidium hominis Iowa sporozoites infected human HCT8 cells assessed as effect on cell viability by microscopy. Conditions: hct-8. In kind it is cell-based.
The nature of series [3]: Toxicity in Cryptosporidium hominis Iowa sporozoites infected human HCT8 cells assessed as effect on RNA levels. In kind it is cell-based. Conditions: hct-8.
The nature of series [4]: Toxicity in Cryptosporidium hominis Iowa sporozoites infected human HCT8 cells assessed as effect on cell morphology by microscopy. It counts as cell-based. Conditions: hct-8.
In series [5] the test system is Cryptosporidium hominis. The experiment in a line: Antiparasitic activity against Cryptosporidium hominis Iowa intracellular forms infected in human HCT8 cells assessed as reduction in parasite infection dosed 2 hrs after parasite infection. In kind it is functional, organism-based. Particulars: HCT-8, 2 h.

Chain of Thymidylate synthase (P04818 whole entry): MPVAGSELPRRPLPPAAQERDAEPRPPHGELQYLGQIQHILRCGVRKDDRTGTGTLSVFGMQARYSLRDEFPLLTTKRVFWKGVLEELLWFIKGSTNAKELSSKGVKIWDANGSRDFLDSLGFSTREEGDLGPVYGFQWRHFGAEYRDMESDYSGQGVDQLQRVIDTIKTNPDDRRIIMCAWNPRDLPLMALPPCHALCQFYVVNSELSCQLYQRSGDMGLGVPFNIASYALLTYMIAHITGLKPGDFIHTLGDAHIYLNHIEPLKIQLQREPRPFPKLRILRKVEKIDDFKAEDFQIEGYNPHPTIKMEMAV

A word on the IC50: it is the point on the concentration scale where inhibition reaches its midpoint. The low end stands for inhibition by little substance, the high end for a need for much substance. The term EC50 denotes the concentration giving half of the maximal effect. For `Nc1nc2[nH]cc(Cc3ccc(C(=O)N[C@@H](CCC(=O)O)C(=O)O)cc3)c2c(=O)[nH]1`, the IC50 against Thymidylate synthase came out at 1.8 µM; against Dihydrofolate reductase it was 0.64 µM. The EC50 in the series with Cryptosporidium hominis [1] and in the series with Cryptosporidium hominis [5] was 1 µM in each case. Also, the Activity result in series [2], in series [3] and in series [4] was “Non-toxic” throughout.

Source of the values: ChEMBL document CHEMBL3351290, “Structural studies provide clues for analog design of specific inhibitors of Cryptosporidium hominis thymidylate synthase-dihydrofolate reductase” (Bioorg Med Chem Lett, 2014).
